Measured values published in ChEMBL document CHEMBL5625248, “Identification of unique indolylcyanoethylenyl sulfonylanilines as novel structural scaffolds of potential antibacterial agents” (Eur J Med Chem, 2023).
Values after ≈ are worked out from the molar mass of the structure shown.

Key:
Type in all cases: functional
Staphylococcus aureus [1] = assay: Antibacterial activity against methicilin-resistant Staphylococcus aureus N315 assessed as inhibition of bacterial growth incubated for 18 hrs by two fold broth microdilution assay
Enterococcus faecalis = assay: Antibacterial activity against Enterococcus faecalis assessed as inhibition of bacterial growth incubated for 18 hrs by two fold broth microdilution assay
Staphylococcus aureus [2] = assay: Antibacterial activity against Staphylococcus aureus assessed as inhibition of bacterial growth incubated for 18 hrs by two fold broth microdilution assay
Staphylococcus aureus [3] = assay: Antibacterial activity against Staphylococcus aureus ATCC 25923 assessed as inhibition of bacterial growth incubated for 18 hrs by two fold broth microdilution assay
Staphylococcus aureus [4] = assay: Antibacterial activity against Staphylococcus aureus ATCC 29213 assessed as inhibition of bacterial growth incubated for 18 hrs by two fold broth microdilution assay
Klebsiella pneumoniae = assay: Antibacterial activity against Klebsiella pneumoniae assessed as inhibition of bacterial growth incubated for 18 hrs by two fold broth microdilution assay
Escherichia coli [5] = assay: Antibacterial activity against Escherichia coli assessed as inhibition of bacterial growth incubated for 18 hrs by two fold broth microdilution assay
Pseudomonas aeruginosa [6] = assay: Antibacterial activity against Pseudomonas aeruginosa assessed as inhibition of bacterial growth incubated for 18 hrs by two fold broth microdilution assay
Acinetobacter baumannii = assay: Antibacterial activity against Acinetobacter baumannii assessed as inhibition of bacterial growth incubated for 18 hrs by two fold broth microdilution assay
Pseudomonas aeruginosa [7] = assay: Antibacterial activity against Pseudomonas aeruginosa ATCC 27853 assessed as inhibition of bacterial growth incubated for 18 hrs by two fold broth microdilution assay
Escherichia coli [8] = assay: Antibacterial activity against Escherichia coli ATCC 25922 assessed as inhibition of bacterial growth incubated for 18 hrs by two fold broth microdilution assay

Row | SMILES | MIC (Staphylococcus aureus [1]) [µg/mL] | MIC (Enterococcus faecalis) [µg/mL] | MIC (Staphylococcus aureus [2]) [µg/mL] | MIC (Staphylococcus aureus [3]) [µg/mL] | MIC (Staphylococcus aureus [4]) [µg/mL] | MIC (Klebsiella pneumoniae) [µg/mL] | MIC (Escherichia coli [5]) [µg/mL] | MIC (Pseudomonas aeruginosa [6]) [µg/mL] | MIC (Acinetobacter baumannii) [µg/mL] | MIC (Pseudomonas aeruginosa [7]) [µg/mL] | MIC (Escherichia coli [8]) [µg/mL]
1 | Cn1cc(/C=C(\C#N)S(=O)(=O)c2ccc(N)cc2)c2ccccc21 | 128 (≈ 379 µM) | 256 (≈ 759 µM) | 256 (≈ 759 µM) | 128 (≈ 379 µM) | 32 (≈ 94.8 µM) | 4 (≈ 11.9 µM) | 64 (≈ 190 µM) | 64 (≈ 190 µM) | 2 (≈ 5.93 µM) | 64 (≈ 190 µM) | 2 (≈ 5.93 µM)
2 | CC(=O)Nc1ccc(S(=O)(=O)/C(C#N)=C/c2cn(CC(=O)OC(C)(C)C)c3ccccc23)cc1 | 256 (≈ 534 µM) | 128 (≈ 267 µM) | 128 (≈ 267 µM) | 128 (≈ 267 µM) | 16 (≈ 33.4 µM) | 128 (≈ 267 µM) | 256 (≈ 534 µM) | 128 (≈ 267 µM) | 128 (≈ 267 µM) | 128 (≈ 267 µM) | 256 (≈ 534 µM)
3 | CC(=O)Nc1ccc(S(=O)(=O)/C(C#N)=C/c2cn(CC(=O)N3CCCCC3)c3ccccc23)cc1 | 128 (≈ 261 µM) | 128 (≈ 261 µM) | 256 (≈ 522 µM) | 2 (≈ 4.08 µM) | 128 (≈ 261 µM) | 64 (≈ 130 µM) | 128 (≈ 261 µM) | 8 (≈ 16.3 µM) | 64 (≈ 130 µM) | 256 (≈ 522 µM) | 256 (≈ 522 µM)
4 | CC(=O)Nc1ccc(S(=O)(=O)/C(C#N)=C/c2cn(Cc3ccc(F)cc3F)c3ccccc23)cc1 | 64 (≈ 130 µM) | 256 (≈ 521 µM) | 8 (≈ 16.3 µM) | 32 (≈ 65.1 µM) | 32 (≈ 65.1 µM) | 256 (≈ 521 µM) | 128 (≈ 260 µM) | 64 (≈ 130 µM) | 16 (≈ 32.6 µM) | 64 (≈ 130 µM) | 32 (≈ 65.1 µM)
5 | CCCCCCCCn1cc(/C=C(\C#N)S(=O)(=O)c2ccc(N)cc2)c2ccccc21 | 256 (≈ 588 µM) | 32 (≈ 73.5 µM) | 128 (≈ 294 µM) | 32 (≈ 73.5 µM) | 16 (≈ 36.7 µM) | 4 (≈ 9.18 µM) | 128 (≈ 294 µM) | 64 (≈ 147 µM) | 32 (≈ 73.5 µM) | 32 (≈ 73.5 µM) | 64 (≈ 147 µM)
6 | C#CCn1cc(/C=C(\C#N)S(=O)(=O)c2ccc(NC(C)=O)cc2)c2ccccc21 | 2 (≈ 4.96 µM) | 4 (≈ 9.91 µM) | 2 (≈ 4.96 µM) | 4 (≈ 9.91 µM) | 8 (≈ 19.8 µM) | 4 (≈ 9.91 µM) | 8 (≈ 19.8 µM) | 4 (≈ 9.91 µM) | 8 (≈ 19.8 µM) | 2 (≈ 4.96 µM) | 2 (≈ 4.96 µM)
7 | CC(=O)Nc1ccc(S(=O)(=O)/C(C#N)=C/c2c[nH]c3c(C)cccc23)cc1 | 64 (≈ 169 µM) | 32 (≈ 84.3 µM) | 32 (≈ 84.3 µM) | 128 (≈ 337 µM) | 32 (≈ 84.3 µM) | 4 (≈ 10.5 µM) | 4 (≈ 10.5 µM) | 64 (≈ 169 µM) | 16 (≈ 42.2 µM) | 64 (≈ 169 µM) | 4 (≈ 10.5 µM)
8 | CCCCCCCCn1cc(/C=C(\C#N)S(=O)(=O)c2ccc(NC(C)=O)cc2)c2ccccc21 | 256 (≈ 536 µM) | 16 (≈ 33.5 µM) | 8 (≈ 16.7 µM) | 4 (≈ 8.37 µM) | 16 (≈ 33.5 µM) | 4 (≈ 8.37 µM) | 256 (≈ 536 µM) | 64 (≈ 134 µM) | 8 (≈ 16.7 µM) | 16 (≈ 33.5 µM) | 32 (≈ 67 µM)
9 | N#C/C(=C\c1cn(Cc2ccc(Cl)cc2Cl)c2ccccc12)S(=O)(=O)c1ccc(N)cc1 | 256 (≈ 531 µM) | 128 (≈ 265 µM) | 256 (≈ 531 µM) | 32 (≈ 66.3 µM) | 64 (≈ 133 µM) | 4 (≈ 8.29 µM) | 256 (≈ 531 µM) | 64 (≈ 133 µM) | 16 (≈ 33.2 µM) | 32 (≈ 66.3 µM) | 64 (≈ 133 µM)
10 | N#C/C(=C\c1c[nH]c2ccccc12)S(=O)(=O)c1ccc(N)cc1 | 64 (≈ 198 µM) | 32 (≈ 99 µM) | 32 (≈ 99 µM) | 128 (≈ 396 µM) | 32 (≈ 99 µM) | 1 (≈ 3.09 µM) | 2 (≈ 6.18 µM) | 4 (≈ 12.4 µM) | 8 (≈ 24.7 µM) | 1 (≈ 3.09 µM) | 4 (≈ 12.4 µM)
